Assay [1] deals with T1, WD repeat-containing protein 5 (Homo sapiens, UniProt P61964).
Assay [2] deals with T1, WD repeat-containing protein 5. In words: Antagonist activity at WDR5 (unknown origin).

In the case of `COc1cccc(C(=O)Nc2cc([N+](=O)[O-])ccc2N2CCN(C)CC2)c1`, the Kd in assay [1] came out at 1.4 µM.
Compound `CN1CCN(c2ccc([N+](=O)[O-])cc2NC(=O)c2cccc(Cl)c2)CC1` showed a Kd in assay [1] of 1.8 µM.
On the same count and under the same terms, the value for `CN(C)CCN(C)c1ccc([N+](=O)[O-])cc1NC(=O)c1ccccc1Cl` was more than 20 µM; that for `Cc1cc(C(=O)Nc2cc([N+](=O)[O-])ccc2N2CCN(C)CC2)ccc1F` was 0.59 µM.
Take `CC(=O)Nc1cc([N+](=O)[O-])ccc1N1CCN(C)CC1`: the dissociation constant (Kd) in assay [1] is more than 10 µM.
On the same count and under the same terms, the value for `CN1CCN(c2ccc([N+](=O)[O-])cc2NC(=O)Cc2ccccc2)CC1` was more than 10 µM; that for `CC1CN(c2ccc([N+](=O)[O-])cc2NC(=O)c2ccccc2Cl)CCN1C` (stereo not drawn) was 4.7 µM.
`O=C(Nc1cc([N+](=O)[O-])ccc1N1CCNCC1)c1ccccc1Cl`: the equilibrium dissociation constant (Kd) in assay [1] was more than 20 µM.
In turn, `O=C(Nc1cc([N+](=O)[O-])ccc1F)c1ccccc1Cl` had a Kd in assay [1] of more than 20 µM.
In turn, `CN1CCN(c2ccc(N)cc2NC(=O)c2ccccc2Cl)CC1` registered a Kd in assay [1] of more than 10 µM.
In the case of `CN(C)C1CCN(c2ccc([N+](=O)[O-])cc2NC(=O)c2ccccc2Cl)C1` (stereo not drawn), the Kd in assay [1] amounted to 15.8 µM.
The compound `COc1cc(C(=O)Nc2cc([N+](=O)[O-])ccc2N2CCN(C)CC2)ccc1F` yielded a Kd in assay [1] of 0.68 µM.
As for `NC1CCN(c2ccc([N+](=O)[O-])cc2NC(=O)c2ccccc2Cl)C1` (stereo not drawn), the Kd in assay [1] was more than 20 µM.
The same measure, in the same setting: then `CN1CCN(c2ccc(-c3ccco3)cc2NC(=O)c2ccccc2Cl)CC1`, with 3.5 µM; and `CN1CCN(c2ccc([N+](=O)[O-])cc2NC(=O)c2ccco2)CC1`, with more than 10 µM; and `O=C(Nc1cc([N+](=O)[O-])ccc1N1CCOCC1)c1ccccc1Cl`, with more than 20 µM.
Regarding `O=C(Nc1cc([N+](=O)[O-])ccc1N1CCCCC1)c1ccccc1Cl`, the Kd in assay [1] was more than 20 µM.
In assay [1], `CN1CCN(c2ccc([N+](=O)[O-])cc2NC(=O)c2cccc(O)c2)CC1` returned a Kd of more than 10 µM.
Same read-out and setting: then `CN1CCN(c2ccc(Br)cc2NC(=O)c2ccccc2Cl)CC1`, with more than 10 µM.
For the compound `O=C(O)c1ccc2ccccc2c1-c1c(C(=O)O)ccc2ccccc12`, the midpoint of inhibition in assay [2], the IC50, lay at 6 µM.
In assay [1], `COC(=O)c1ccc(N2CCN(C)CC2)c(NC(=O)c2ccccc2Cl)c1` came in with a Kd of 6.6 µM.
The same measure, in the same setting: the value for `CN1CCN(c2ccc([N+](=O)[O-])cc2NC(=O)c2ccc(F)cc2Cl)CC1` was 0.63 µM.
The same measure, in the same setting: then `CN1CCCN(c2ccc([N+](=O)[O-])cc2NC(=O)c2ccccc2Cl)CC1`, with 7 µM.
`CN1CCN(c2ccc([N+](=O)[O-])cc2NC(=O)c2cccc3ncccc23)CC1` gave a dissociation constant (Kd) in assay [1] of 1.5 µM.
The same measure, in the same setting: the value for `Cc1cccc(C(=O)Nc2cc([N+](=O)[O-])ccc2N2CCN(C)CC2)c1` was 1.1 µM; that for `CN1CCN(c2ccc(C3CC3)cc2NC(=O)c2ccccc2Cl)CC1` was more than 10 µM; that for `CN1CCN(c2ccc([N+](=O)[O-])cc2NC(=O)C2CCCCC2)CC1` was more than 10 µM.
In turn, `Cc1cccc(C(=O)Nc2cc([N+](=O)[O-])ccc2N2CCN(C)CC2)c1Cl` registered a Kd in assay [1] of 1.1 µM.
On the same count and under the same terms, the value for `NC1CCN(c2ccc([N+](=O)[O-])cc2NC(=O)c2ccccc2Cl)CC1` was more than 20 µM; that for `CCN1CCN(c2ccc([N+](=O)[O-])cc2NC(=O)c2ccccc2Cl)CC1` was more than 20 µM.
Still for that read-out and setting: then `CN1CCN(c2ccc(C(=O)O)cc2NC(=O)c2ccccc2Cl)CC1`, with more than 10 µM.
The same measure, in the same setting: then `CN1CCN(c2ccc([N+](=O)[O-])cc2NC(=O)c2cccc3ccccc23)CC1`, with 0.71 µM; and `CN1CCN(c2ccc(-c3ccncc3)cc2NC(=O)c2ccccc2Cl)CC1`, with 2.2 µM.
The compound `CN(C)C1CCN(c2ccc([N+](=O)[O-])cc2NC(=O)c2ccccc2Cl)CC1` returned a Kd in assay [1] of more than 20 µM.
In assay [1], `CN1CCN(c2ccc(C(F)(F)F)cc2NC(=O)c2ccccc2Cl)CC1` had an equilibrium dissociation constant (Kd) of more than 10 µM.
On the same count and under the same terms, then `CN1CCN(c2ccc([N+](=O)[O-])cc2NC(=O)c2cccnc2)CC1`, with more than 10 µM; and `CN1CCN(c2ccc([N+](=O)[O-])cc2NC(=O)c2ccccc2)CC1`, with 5.8 µM.
With `CN1CCN(c2ccc([N+](=O)[O-])cc2NC(=O)c2ccc(F)cc2)CC1`, the affinity in assay [1], expressed as Kd, was 3.1 µM.

The term Kd denotes the equilibrium constant for the complex coming apart. A lower Kd goes with tighter binding. A word on the IC50: it is the midpoint of a concentration-inhibition curve.

These data come from ChEMBL document CHEMBL2331202, “Synthesis, Optimization, and Evaluation of Novel Small Molecules as Antagonists of WDR5-MLL Interaction” (ACS Med Chem Lett, 2013).
